Earlier results in US8071770B2, “Spirohydantoin aryl CGRP receptor antagonists” (Merck Sharp & Dohme Corp., priority 2005, dated 2011).
Ends that are not written are not given here.

Key:
facial blood flow [1] = details: marmoset, electrical stimulation of the trigeminal ganglion (Doods et al. 2000)
middle meningeal artery = details: rats, electrical stimulation of the dura mater, prior administration (Williamson et al. 1997)
facial blood flow [2] = details: rat, trigeminal ganglion stimulation (Escott et al. 1995)

Row | Compound | effect on increase in facial blood flow (facial blood flow [1]) | effect on increase of middle meningeal artery diameter (middle meningeal artery) | effect on increase of facial blood flow (facial blood flow [2])
1 | NCCCC[C@H](NC(=O)[C@@H](Cc1cc(Br)c(O)c(Br)c1)NC(=O)N1CCC(N2Cc3ccccc3NC2=O)CC1)C(=O)N1CCN(c2ccncc2)CC1 [BIBN4096BS] | blocked | – | –
2 | CGRP (8-37): a fragment of CGRP that lacks seven N-terminal amino acid residues; a peptide CGRP antagonist (VTHRLAGLLSRSGGVVKNNFVPTNVGSKAF; ends and bridges not checked; UniProt P06881 90-119, looked up, fragment) | – | blocked | inhibited
